Like-named read-outs stand apart in the source and are kept apart here.
Experiments:
[1] = test system: aryl sulfotransferases; settings: cited from earlier work
[2] = test system: VSV-G pseudotyped MLV vector (MMP-nls-lacZ[VSV-G]); type: cell-based, murine leukemia virus (MLV)
[3] = test system: MLV LTR-driven mRNA transcription (pCMMP-EGFP); type: cell-based, murine leukemia virus (MLV)
[4] = test system: VSV-G pseudotyped HIV-1 vector NL43E-R-Luc; type: cell-based
[5] = test system: MLV vector pMMp-nls-LacZ[VSV-G]; type: cell-based, murine leukemia virus (MLV)
[6] = test system: MLV vector pMMp-nls-LacZ[VSV-G]; type: cell-based, murine leukemia virus (MLV); remark: listed apart in the source
[7] = test system: VSV-G pseudotyped MLV vector (pLEGFP); type: cell-based, murine leukemia virus (MLV)
[8] = test system: resident (pCMMP-SEAP) and newly acquired (MMP-nls-lacZ[VSV-G]) MLV proviruses; type: cell-based, murine leukemia virus (MLV)
[9] = test system: HIV; assay: HIV infection in low versus high sulfate media; settings: FIG. 20B
[10] = test system: HIV; assay: HIV infection with suboptimal (20 mM) chlorate; settings: FIG. 21B

Oc1cc(Cl)ccc1Oc1ccc(Cl)cc1Cl [trichlosan]
quantities that interfere with aryl sulfotransferases [1]: μM

COc1ccccc1O [guaiacol]
fold less blue cells as compared to untreated cells [2]: ~3.4 fold | reduction of viral-derived transcript levels, normalized to β-actin ([3]; CHO-K1 cells, 100 mM chlorate, 5 mM guaiacol or both, FIGS. 6D, 6E): 17 fold | reduction in HIV LTR-driven reporter gene expression [4]: 8 fold | quantities that interfere with aryl sulfotransferases [1]: mM

[O-][Cl+2]([O-])O [chlorate]
fold less blue cells as compared to untreated cells [2]: approximately 6.7 fold | time of addition that had no effect on viral reporter gene expression [2]: ≥ 18 hpi | time of addition that led to a reduction in subsequent viral reporter gene expression [2]: up to 16 hpi | fold less susceptible to infection, by reporter gene expression [5]: approximately 9.3 fold | additional reduction of MLV infection [6]: 2 fold | effect on accumulation of viral reverse transcription products [7]: no effect | reduction of viral-derived transcript levels, normalized to β-actin [3]: 11 fold | effect on gene expression from newly acquired versus resident proviruses [8]: affected gene expression from the newly acquired, but not the resident proviruses | influence on β-galactosidase expression from a resident MLV vector [8]: not to influence | reduction in HIV LTR-driven reporter gene expression [4]: 10 fold

Cc1cn([C@H]2C[C@H](N=[N+]=[N-])[C@@H](CO)O2)c(=O)[nH]c1=O [AZT]
inhibition of HIV infection in low sulfate media versus high sulfate media [9]: unaffected by low sulfate conditions | inhibition of HIV infection in media containing 20 mM chlorate versus standard media [10]: unaffected by 20 mM chlorate
